For test [1], the system named is MCF-7, clone WS8 cells. As to the kind of experiment: MCF-7 cell proliferation assay of estrogenic activity. To be noted: log10 of Relative Proliferative Effect (EC50 ratio versus 17-beta estradiol times 100); b102 calls the values expected or measured. Type of test: cell-based, human. The source says:
The MCF-7 assay is a useful test for assessing whether a polyhydric phenol compound is appreciably non-estrogenic. The MCF-7 assay uses MCF-7, clone WS8 cells to measure whether and to what extent a substance induces cell proliferation via estrogen receptor (ER)-mediated pathways. The method is described in “Test Method Nomination: MCF-7 Cell Proliferation Assay of Estrogenic Activity” submitted for validation by CertiChem, Inc. to the National Toxicology Program Interagency Center for the Evaluation of Alternative Toxicological Methods (NICEATM) on Jan. 19, 2006 (available online at iccvam.niehs.nih.gov/methods/endocrine/endodocs/SubmDoc.pdf).
A brief summary of the method of the aforementioned MCF-7 assay is provided below. MCF-7, clone WS8 cells are maintained at 37° C. in RMPI (Roswell Park Memorial Institute medium) containing Phenol Red (e.g., GIBCO Catalog Number 11875119) and supplemented with the indicated additives for routine culture. An aliquot of cells maintained at 37° C. are grown for two days in phenol-free media containing 5% charcoal stripped fetal bovine serum in a 25 cm^2 tissue culture flask. Using a robotic dispenser such as an EPMOTION™ 5070 unit, MCF-7 cells are then seeded at 400 cells per well in 0.2 ml of hormone-free culture medium in Corning 96-well plates. The cells are adapted for 3 days in the hormone-free culture medium prior to adding the chemical to be assayed for estrogenic activity. The media containing the test chemical is replaced daily for 6 days. At the end of the 7 day exposure to the test chemical, the media is removed, the wells are washed once with 0.2 ml of HBSS (Hanks' Balanced Salt Solution), and then assayed to quantify amounts of DNA per well using a micro-plate modification of the Burton diphenylamine (DPA) assay, which is used to calculate the level of cell proliferation.
RPE is the ratio between the EC50 of the test chemical and the EC50 of the control substance 17-beta estradiol times 100, where EC50 is “effective concentration 50%” or half-maximum stimulation concentration for cell proliferation measured as total DNA in the MCF-7 assay.

The target of test [2] is T1, human estrogen receptor (Homo sapiens, UniProt P03372).
T1 sequence (P03372 1-595): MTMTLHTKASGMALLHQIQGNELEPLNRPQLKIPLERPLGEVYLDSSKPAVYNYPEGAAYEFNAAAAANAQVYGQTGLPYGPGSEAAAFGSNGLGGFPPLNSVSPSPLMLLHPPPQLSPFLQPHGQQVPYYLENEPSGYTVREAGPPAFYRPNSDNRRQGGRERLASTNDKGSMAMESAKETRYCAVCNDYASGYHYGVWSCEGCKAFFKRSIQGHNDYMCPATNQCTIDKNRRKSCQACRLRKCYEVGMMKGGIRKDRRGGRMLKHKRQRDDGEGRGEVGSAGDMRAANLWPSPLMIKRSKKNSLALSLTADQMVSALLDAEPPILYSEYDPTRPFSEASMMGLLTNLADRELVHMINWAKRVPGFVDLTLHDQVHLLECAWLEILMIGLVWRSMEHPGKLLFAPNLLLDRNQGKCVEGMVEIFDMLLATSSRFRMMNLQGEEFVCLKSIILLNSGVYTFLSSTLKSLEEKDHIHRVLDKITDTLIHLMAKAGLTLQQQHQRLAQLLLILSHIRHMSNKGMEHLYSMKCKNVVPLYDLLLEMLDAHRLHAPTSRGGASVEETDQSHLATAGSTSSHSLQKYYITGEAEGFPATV
Put plainly: suitable in vitro assay whose results correlate with the MCF-7 assay (estrogenic activity). To be noted: in vitro assay correlated to MCF-7 assay through common reference compounds.

Regarding `C[C@]12CC[C@@H]3c4ccc(O)cc4CC[C@H]3[C@@H]1CC[C@@H]2O` [17β-estradiol], the “Log RPE” value in test [1] is 2.00.
The same measure, in the same setting: in the case of `Oc1ccc(Cc2ccc(O)cc2)cc1` [Bisphenol F] it was −2.
Same read-out and setting: next, `O=S(=O)(c1ccc(O)cc1)c1ccc(O)cc1` [Bisphenol S]: −2.
`Cc1cc(Cc2cc(C)c(O)c(C)c2)cc(C)c1O` [Structure 6, 4,4′-methylenebis(2,6-dimethylphenol)]: the estrogenic activity result in test [2] is “do not exhibit appreciable estrogenic activity”.
Still for that read-out and setting: in the case of `CCCC(c1cc(C(C)(C)C)c(O)cc1C)c1cc(C(C)(C)C)c(O)cc1C` [Structure 7, 4,4′-butylidenebis(2-t-butyl-5-methylphenol)] it was “do not exhibit appreciable estrogenic activity”.
Same read-out and setting: next, `CC(C)(C)c1cc(Cc2cc(C(C)(C)C)c(O)c(C(C)(C)C)c2)cc(C(C)(C)C)c1O` [Structure 8, 4,4′-methylenebis(2,6-di-t-butylphenol)]: “do not exhibit appreciable estrogenic activity”; `Cc1cc(Cc2cc(C)cc(C(C)(C)C)c2O)c(O)c(C(C)(C)C)c1` [Structure 9]: “do not exhibit appreciable estrogenic activity”.
In the case of `Oc1ccccc1Cc1ccccc1O` [Structure 11], the “Log RPE” value in test [1] was “less than −4”.
Take `CC(C)(C)c1cc(O)c(C(C)(C)C)cc1O` [Structure 12, 2,5-di-t-butylhydroquinone]: the estrogenic activity result in test [2] is “do not exhibit appreciable estrogenic activity”.
Regarding `CC(C)(C)c1cc(O)c(C(C)(C)C)cc1O` [Structure 12], in test [1], the “Log RPE” value is recorded as “less than −4”.

(Values after patent US10316211B2, “Stabilizer and coating compositions thereof” (SWIMC LLC, priority 2012, dated 2019).)
